{"source": "patent US20180263860A1", "about": "“DELIVERY SYSTEMS FOR APPLICATION OF ANTIBIOTIC GEL FORMULATION” (Indiana University Research and Technology Corporation, priority 2015, published 2018)", "key": {"[1]": {"system": "three-week old E. faecalis biofilm", "assay": "Biofilm disruption assay on infected dentin samples (Example 2)", "assay_type": "cell-based, Enterococcus faecalis", "conditions": "immersion for 5 minutes", "experimental": "Unidentified intact human teeth were collected, stored in 0.1% thymol solution at 4° C., and used within 6 months after obtaining local Institutional Review Board approval (IRB #1409251353). A standardized radicular dentin sample (4×4×1 mm^3) was obtained from each root using a slow diamond saw (IsoMet, Buehler, Lake Bluff, Ill.) under continuous distilled water irrigation. The pulpal side of each specimen was wet-finished with silicon carbide abrasive papers (500-2400 grit, Struers, Cleveland, Ohio). The polished samples were then sonicated in deionized water for 3 minutes, washed with sterile water, wrapped individually with moist cotton pellets, placed in Whirl-pak bags (Sigma-Aldrich, St Louis, Mo.), gas sterilized with ethylene oxide, and stored at 4° C. until used. E. faecalis (ATCC 29212) was grown initially on anaerobic blood agar plates (CDC, BioMerieux, Durham, N.C.). […] Dentin samples were placed individually in separate wells of a 96-sterile well plate (Fisherbrand, Fischer Scientific) with the pulpal side facing upwards. Then, 10 μl of an overnight E. faecalis culture (10^6 CFU/mL) dispersed in 190 μL of fresh BHI-YE growth media was added to each dentin specimen. […] The CFUs/mL were quantified using an automated colony counter (Synbiosis, Inc., Frederick, Md.). Summary statistics were calculated for the log-transformed data from each group. […]"}, "[2]": {"system": "stem cells from apical papillae and dental pulp stem cells", "conditions": "2% CHX; recent in vitro studies; cited from earlier work"}}, "note": "“Also recorded” adds a separate entry of the source.", "data": [{"smiles": "N=C(NCCCCCCNC(=N)NC(=N)Nc1ccc(Cl)cc1)NC(=N)Nc1ccc(Cl)cc1.O=C(O)[C@H](O)[C@@H](O)[C@H](O)[C@H](O)CO.O=C(O)[C@H](O)[C@@H](O)[C@H](O)[C@H](O)CO", "note": "[CHX]", "values": [{"measurement": "antibiofilm effect (log CFU/mL)", "setting": "[1]; 2% CHX", "result": "significant reduction in E. faecalis biofilm; also recorded: nearly eliminate the bacterial biofilm"}, {"measurement": "effects on survival and attachment of stem cells from apical and dental pulp", "setting": "[2]", "result": "highly unfavorable effects"}]}, {"smiles": "OCl", "note": "[NaOCl, sodium hypochlorite]", "values": [{"measurement": "antibiofilm effect (log CFU/mL)", "setting": "[1]; 1.5% NaOCl", "result": "significant reduction and complete eradication of E. faecalis biofilm"}]}]}
